Read-outs that look alike come from different tables or passages of the source. Starred links: 1 amine or outer side, 2 acyl side, 3 side chain; linkers in the order of their positions; H or OH if unused. Non-standard residues stand in square brackets, D forms with d. Residues, ends and D or L forms follow the SMILES beside them. *: point of attachment. Sta = CC(C)C[C@H](N)[C@@H](O)CC(=O)O; Isovaleryl = CC(C)CC(=O)*; CO = O=C([*:1])[*:2]
Tests used:
C-proteinase [1] = conditions: cited from earlier work; for inhibitory at low concentrations / inhibition of C-proteinase activity (in words) / concentrations at which inhibitory: background, prior art
C-proteinase [2] = molecular target: T1, C-proteinase (Homo sapiens, UniProt P13497); assay: Cleavage of synthetic procollagen cleavage-site peptides by active C-proteinase; format: biochemical; conditions: for Cleavability: Table 1, cleavability of peptides resembling the C-proteinase cleavage site of procollagen; for cleavability by C-proteinase: truncated and extended peptides compared with original peptide SEQ ID NO:6
T1 sequence (P13497 121-986): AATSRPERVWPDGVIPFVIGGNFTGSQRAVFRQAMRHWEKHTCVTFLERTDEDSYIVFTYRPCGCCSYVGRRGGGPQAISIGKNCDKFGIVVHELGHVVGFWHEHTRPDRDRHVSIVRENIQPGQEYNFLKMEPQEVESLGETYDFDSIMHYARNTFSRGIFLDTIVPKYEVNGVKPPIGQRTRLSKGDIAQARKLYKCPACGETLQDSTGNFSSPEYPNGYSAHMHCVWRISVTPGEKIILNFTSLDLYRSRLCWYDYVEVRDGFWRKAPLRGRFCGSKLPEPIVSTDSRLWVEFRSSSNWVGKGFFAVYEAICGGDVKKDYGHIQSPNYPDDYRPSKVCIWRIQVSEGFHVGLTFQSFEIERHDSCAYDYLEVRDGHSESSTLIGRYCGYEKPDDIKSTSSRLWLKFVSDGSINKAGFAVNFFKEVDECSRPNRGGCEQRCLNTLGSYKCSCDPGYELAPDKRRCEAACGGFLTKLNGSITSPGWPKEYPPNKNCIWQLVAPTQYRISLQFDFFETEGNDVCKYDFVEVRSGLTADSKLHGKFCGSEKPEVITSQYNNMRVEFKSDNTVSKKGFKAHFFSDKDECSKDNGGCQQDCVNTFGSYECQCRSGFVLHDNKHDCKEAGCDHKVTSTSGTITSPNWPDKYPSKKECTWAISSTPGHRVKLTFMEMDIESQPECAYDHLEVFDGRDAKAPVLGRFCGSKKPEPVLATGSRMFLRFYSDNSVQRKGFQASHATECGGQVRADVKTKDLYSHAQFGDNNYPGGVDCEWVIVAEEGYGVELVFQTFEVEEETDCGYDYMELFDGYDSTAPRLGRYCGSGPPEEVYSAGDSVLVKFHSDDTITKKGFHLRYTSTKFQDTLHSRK
From the text: A variety of short peptides comprising five (5) to twelve (12) amino acids was synthesized and tested for cleavage by active C-proteinase.
First, four peptides, each comprising eight (8) amino acids corresponding to the cleavage region of several procollagens were synthesized. See, TABLE 1, SEQ ID NO:3, SEQ ID NO:4, SEQ ID NO:5, and SEQ ID NO:6. All four peptides were examined for cleavability by C-proteinase. […] Indeed, one would expect that recognition of the cleavage site depends on structural requirements which cannot be resembled by only eight (8) amino acids.
Second, a series of peptides was prepared based on the sequence of original peptide SEQ ID NO:6. Specifically, peptides were designed resembling the core of the peptide comprising SEQ ID NO:6, but with truncations of one, two and three amino acids from either side of the cleavage site. A further peptide was synthesized resembling two additional amino acids at both the N-terminus and C-terminus of the original peptide comprising SEQ ID NO:6.
Removing two or more amino acids from either end of the original SEQ ID NO:6 sequence, however, yielded a non-cleavable peptide (SEQ ID NOS:9, 10, 12, 13).

O[C@H](CS)[C@H](O)CS (racemic) [Dithiothreitol]
inhibitory at low concentrations (C-proteinase [1]): inhibitory at low concentrations

[Cd+2] [Cd^2+]
inhibitory at low concentrations (C-proteinase [1]): inhibitory at low concentrations

[Cu+2] [Cu^2+]
inhibitory at low concentrations (C-proteinase [1]): inhibitory at low concentrations

[Cl-].[Na+] [NaCl]
activity relative to that observed with the standard assay concentration of 0.15M (C-proteinase [1]; 0.2M NaCl): 66%
activity relative to that observed with the standard assay concentration of 0.15M (C-proteinase [1]; 0.3M NaCl): 38%
activity relative to that observed with the standard assay concentration of 0.15M (C-proteinase [1]; 0.5M NaCl): 25%

CCCCCCCCCCCCOS(=O)(=O)[O-].[Na+] [SDS]
inhibitory at low concentrations (C-proteinase [1]): inhibitory at low concentrations

CC(=O)N[C@@H](Cc1ccc(O)cc1)C(=O)N[C@@H](Cc1ccc(O)cc1)C(=O)N[C@@H](CCCNC(=N)N)C(=O)N[C@@H](C)C(=O)N[C@@H](CC(=O)O)C(=O)N[C@@H](CC(=O)O)C(=O)N[C@@H](C)C(=O)N[C@@H](CC(N)=O)C(N)=O [SEQ ID NO:3, Ac-YYRA-DDAN-NH2] (Ac-YYRADDAN-NH2)
Cleavability (C-proteinase [2]): slight
cleavability by C-proteinase (C-proteinase [2]): cleaved by C-proteinase

CC(=O)N[C@@H](Cc1ccccc1)C(=O)N[C@@H](Cc1ccc(O)cc1)C(=O)N[C@@H](CCCNC(=N)N)C(=O)N[C@@H](C)C(=O)N[C@@H](CC(=O)O)C(=O)N[C@@H](CCC(N)=O)C(=O)N1CCC[C@H]1C(=O)N[C@@H](CCCNC(=N)N)C(N)=O [SEQ ID NO:4, Ac-FYRA-DQPR-NH2] (Ac-FYRADQPR-NH2)
Cleavability (C-proteinase [2]): slight
cleavability by C-proteinase (C-proteinase [2]): cleaved by C-proteinase

CSCC[C@H](NC(=O)[C@H](Cc1ccc(O)cc1)NC(C)=O)C(=O)N[C@@H](CCCNC(=N)N)C(=O)N[C@@H](C)C(=O)N[C@@H](CC(=O)O)C(=O)N[C@@H](CCC(N)=O)C(=O)N[C@@H](C)C(=O)N[C@@H](C)C(N)=O [SEQ ID NO:5, Ac-YMRA-DQAA-NH2] (Ac-YMRADQAA-NH2)
Cleavability (C-proteinase [2]): slight
cleavability by C-proteinase (C-proteinase [2]): cleaved by C-proteinase

CSCC[C@H](NC(=O)[C@@H]1CCCN1C(=O)[C@H](CCC(=O)O)NC(=O)[C@H](CC(=O)O)NC(=O)CNC(=O)[C@H](Cc1ccc(O)cc1)NC(=O)[C@H](Cc1ccc(O)cc1)NC(=O)[C@@H]1CCCN1C(C)=O)C(N)=O [SEQ ID NO:6, Ac-PYYG-DEPM-NH2] (Ac-PYYGDEPM-NH2)
Cleavability (C-proteinase [2]): excellent
cleavability by C-proteinase (C-proteinase [2]): cleaved much more efficiently than the three others

CSCC[C@H](NC(=O)[C@@H]1CCCN1C(=O)[C@H](CCC(=O)O)NC(=O)[C@H](CC(=O)O)NC(=O)CNC(=O)[C@H](Cc1ccc(O)cc1)NC(=O)[C@H](Cc1ccc(O)cc1)NC(=O)[C@@H]1CCCN1C(=O)[C@H](C)NC(=O)[C@H](Cc1ccccc1)NC(C)=O)C(=O)N[C@@H](CC(=O)O)C(=O)N[C@@H](Cc1ccccc1)C(N)=O [SEQ ID NO:7, Ac-FAPYYG-DEPMDF-NH2] (Ac-FAPYYGDEPMDF-NH2)
Cleavability (C-proteinase [2]): excellent
cleavability by C-proteinase (C-proteinase [2]): did not impact its cleavability

[Zn+2] [Zn^2+]
inhibitory at low concentrations (C-proteinase [1]): inhibitory at low concentrations

CC(C)C[C@@H](N)[C@H](O)C(=O)N[C@H](C(=O)N[C@H](C(=O)N[C@@H](CC(=O)O)C(=O)O)C(C)C)C(C)C [amastatin]
inhibition of C-proteinase activity (in words) (C-proteinase [1]): weak or no effect

N.N.O=S(=O)(O)O [ammonium sulfate]
concentrations at which inhibitory (C-proteinase [1]): 1 to 10 mM

CC(C)[C@H](NC(=O)[C@H](CCCNC(=N)N)NC(=O)N[C@@H](Cc1ccccc1)C(=O)O)C(=O)N[C@H](C=O)CCCNC(=N)N [antipain] ({Phe-CO}-Arg-Val-Arg-aldehyde)
inhibition of C-proteinase activity (in words) (C-proteinase [1]): weak or no effect

N=C(N)NCCC[C@H](N)C(=O)O [arginine]
inhibition of C-proteinase activity (in words) (C-proteinase [1]): inhibited

CC(C)C[C@H](NC(=O)[C@@H](O)[C@H](N)Cc1ccccc1)C(=O)O [bestatin]
inhibition of C-proteinase activity (in words) (C-proteinase [1]): weak or no effect

CC(C)C[C@H](NC(=O)[C@@H](NC(=O)N[C@@H](Cc1ccccc1)C(=O)O)[C@@H]1CCN=C(N)N1)C(=O)N[C@H](C=O)Cc1ccccc1 [chymostatin]
inhibition of C-proteinase activity (in words) (C-proteinase [1]): relatively strong inhibitors

CC(C)C[C@H](NC(=O)N[C@H](C(=O)N[C@@H](CCC(N)=O)C(=O)N[C@@H](C)C=O)[C@@H]1CCNC(=N)N1)C(=O)O [elastinal]
inhibition of C-proteinase activity (in words) (C-proteinase [1]): weak or no effect

CC(=O)N[C@@H](CC(C)C)C(=O)N[C@@H](CC(C)C)C(=O)N[C@H](C=O)CCCNC(=N)N [leupeptin]
inhibition of C-proteinase activity (in words) (C-proteinase [1]): weak or no effect

NCCCC[C@H](N)C(=O)O [lysine]
inhibition of C-proteinase activity (in words) (C-proteinase [1]): inhibited

CC(C)CC(=O)N[C@H](C(=O)N[C@H](C(=O)N[C@@H](CC(C)C)[C@@H](O)CC(=O)N[C@@H](C)C(=O)N[C@@H](CC(C)C)[C@@H](O)CC(=O)O)C(C)C)C(C)C [pepstatin A] (Isovaleryl-VV[Sta]A[Sta]-OH)
inhibition of C-proteinase activity (in words) (C-proteinase [1]): relatively strong inhibitors

CC(C)C[C@H](NP(=O)(O)O[C@@H]1O[C@@H](C)[C@H](O)[C@@H](O)[C@H]1O)C(=O)N[C@@H](Cc1c[nH]c2ccccc12)C(=O)O [phosphoramidon]
inhibition of C-proteinase activity (in words) (C-proteinase [1]): weak or no effect

Tris-HCl [Tris-HCl buffer]
inhibition of C-proteinase activity by buffer (C-proteinase [1]; concentration of 0.2-0.5M): markedly inhibited activity

concanavalin A
inhibitory at low concentrations (C-proteinase [1]): inhibitory at low concentrations

phosphate
concentrations at which inhibitory (C-proteinase [1]): 1 to 10 mM

α2 -Macroglobulin
inhibition of C-proteinase activity (in words) (C-proteinase [1]): at least partially inhibit

B1: ovostatin (protein, UniProt P20740 37-1473, looked up)
Ovostatin: KEPEPQYVLMVPAVLQSDSPSQVCLQFFNLNQTISVRVVLEYDTINTTIFEKNTTTSNGLQCLNFMIPPVTSVSLAFISFTAKGTTFDLKERRSVMIWNMESFVFVQTDKPIYKPGQSVMFRVVALDFNFKPVQEMYPLIAVQDPQNNRIFQWQNVTSEINIVQIEFPLTEEPILGNYKIIVTKKSGERTSHSFLVEEYVLPKFDVTVTAPGSLTVMDSELTVKICAVYTYGQPVEGKVQLSVCRDFDSYGRCKKSPVCQSFTKDLDTDGCLSHILSSKVFELNRIGYKRNLDVKAIVTEKEQVCNLTATQSISITQVMSSLQFENVDHHYRRGIPYFGQIKLVDKDNSPISNKVIQLFVNNKNTHNFTTDINGIAPFSIDTSKIFDPELSLKALYKTSDQCHSEGWIEPSYPDASLSVQRLYSWTSSFVRIEPLWKDMSCGQKRMITVYYILNTEGYEHINIVNFYYVGMAKGKIVLTGEIKVNIQADQNGTFMIPLVVNEKMAPALRLLVYMLHPAKELVADSVRFSIEKCFKNKVQLQFSEKQMLTTSNVSLVIEAAANSFCAVRAVDKSMLLLKSETELSAETIYNLHPIQDLQGYIFNGLNLEDDPQDPCVSSDDIFHKGLYYRPLTSGLGPDVYQFLRDMGMKFFTNSKIRQPTVCTRETVRPPSYFLNAGFTASTHHVKLSAEVAREERGKRHILETIREFFPETWIWDIILINSTGKASVSYTIPDTITEWKASAFCVEELAGFGMSVPATLTAFQPFFVDLTLPYSIIHGEDFLVRANVFNYLNHCIKINVLLLESLDYQAKLISPEDDGCVCAKIRKSYVWNIFPKGTGDVLFSITAETNDDEACEEEALRNIRIDYRDTQIRALLVEPEGIRREETQNFLICMKDDVISQDVAIDLPTNVVEGSPRPSFSVVGDIMGTAIQNVHQLLQMPFGNGEQNMVLFAPNIYVLDYLDKTRQLSEDVKSKTIGYLVSGYQKQLSYKHPDGSYSTFGIRDKEGNTWLTAFVYKSFAEASRFIYIDDNVQAQTLIWLATKQKTDGCFQSTGILVNNAMKGGVENELSLSAYITIALLEAGHSMSHTVIRNAFYCLETASEKNITDIYTQALVAYAFCLAGKAEICESFLRELQKSAKEVDGSKYWEQNQRSAPEKSHLLDHVQSTDVEITSYVLLALLYKPNRSQEDLTKASAIVQWIIRQQNSYGGFASMQDTVVALQALAAYGAATYNSVTQNVIKINSKNTFEKVFTVNNENRLLLQQTPLPQVPGKYSLTVNGTGCVLIQTALRYNIHLPEGAFGFSLSVQTSNASCPRDQPGKFDIVLISSYTGKRSSSNMVIIDVKMLSGFVPVKSSLDQLIDDHTVMQVEYKKNHVLLYLGNILQKRRKEVTFSVEQDFVVTHPKPAPVQIYDYYETEEYAVAEYMSLCRGVVEEMG
inhibition of C-proteinase activity (in words) (C-proteinase [1]): at least partially inhibit
